Results as given in patent US20200031811A1, “SUBSTITUTED MONO- AND POLYAZANAPHTHALENE DERIVATIVES AND THEIR USE” (Basilea Pharmaceutica International AG, priority 2015, published 2020).

Columns and labels:
[1] = test system: human pancreatic cancer cell line MiaPaCa2 (ATCC CRL-1420); assay: Cell growth assay (CellTiterGlo, 72 hours); format: cell-based; settings: for IC50: MIA PaCa-2, MiaPaCa2 cells, 72 hours, read-out: IC50 MiaPaCa
Procedure, shortened: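 MiaPaCa2 cells (10^3/well) seeded in supplemented DMEM overnight, then exposed in quadruplicate to compound at 100 down to 0.1 μM for 72 h at 37° C. Growth read by CellTiterGlo luminescence, medium-only background subtracted, normalised to untreated cells; IC50 = concentration reducing growth to 50%.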

MNK1 = target: T1, MNK1 (Homo sapiens, UniProt Q9BUB5); assay: MNK inhibition assay (Z-Lyte kinase assay, Ser/Thr 7 peptide); format: biochemical; settings: recombinant GST-MNK1, 3 hours at 31° C.
T1 construct: purchased Life Technologies or Carna Biosciences PV6023 or 02-145; host or cells: baculovirus infected insect cells
Procedure, shortened: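 Recombinant GST-MNK1 from baculovirus-infected insect cells, Z-Lyte Ser/Thr 7 peptide, enzyme set for ~30% phosphorylation in buffer-only wells; 3 hours at 31° C. Compounds at 50–10000 nM (potent ones down to 0.5 nM), at least duplicate. IC50 from % substrate phosphorylation versus buffer-only wells, fluorescence read-out.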

[2] = test system: B16 melanoma pulmonary metastatic lesions; settings: in vivo; cited from earlier work
[3] = test system: HCT116 colon carcinoma xenograft; settings: nude mice; cited from earlier work

T1 sequence (Q9BUB5 whole entry): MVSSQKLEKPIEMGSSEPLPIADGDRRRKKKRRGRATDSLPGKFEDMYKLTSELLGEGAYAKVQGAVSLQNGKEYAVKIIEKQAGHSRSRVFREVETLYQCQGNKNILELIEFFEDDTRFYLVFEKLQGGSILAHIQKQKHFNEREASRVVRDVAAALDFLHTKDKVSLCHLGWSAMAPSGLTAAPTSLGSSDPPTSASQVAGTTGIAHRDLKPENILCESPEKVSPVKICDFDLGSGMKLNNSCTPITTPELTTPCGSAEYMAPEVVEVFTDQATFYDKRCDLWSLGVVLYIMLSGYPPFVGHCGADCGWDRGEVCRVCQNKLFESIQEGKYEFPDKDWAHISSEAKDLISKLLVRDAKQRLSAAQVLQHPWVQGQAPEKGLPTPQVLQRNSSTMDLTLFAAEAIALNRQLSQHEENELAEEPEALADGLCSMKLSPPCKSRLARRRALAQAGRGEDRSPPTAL

IC50 [1] [nM]	IC50 (MNK1) [nM]	Compound	inhibition at 100 µM ([1]; MIA PaCa-2, at 100 μM, read-out: Inhibition of MiaPaCa growth at indicated concentration) [%]	outgrowth of B16 melanoma pulmonary metastatic lesions [2]	growth of a HCT116 colon carcinoma xenograft model [3]
2810	297	CCOc1cc(CN2CCC(N)CC2)cc2c(-c3cc4ccccc4o3)cncc12 [Example 281, 1-[[4-(Benzofuran-2-yl)-8-ethoxy-6-isoquinolyl]methyl]piperidin-4-amine]	–	–	–
4630	152	COc1cc2cncc(-c3cc4ccccc4o3)c2cc1CN1CCC(N)CC1 [Example 282, 1-[[4-(Benzofuran-2-yl)-7-methoxy-6-isoquinolyl]methyl]piperidin-4-amine]	–	–	–
2550	750	CC(C)Oc1cc(CN2CCC(N)CC2)cc2c(-c3cc4ccccc4o3)cncc12 [Example 283, 1-[[4-(benzofuran-2-yl)-8-isopropoxy-6-isoquinolyl]methyl]piperidin-4-amine]	–	–	–
4230	160	Nc1ncc(-c2ccc(Cl)cc2)c2cc(CN3CCC(N)CC3)cc(Cl)c12 [Example 284]	–	–	–
6770	150	Nc1ncc(-c2ccc(F)c(F)c2)c2cc(CN3CCC(N)CC3)cc(Cl)c12 [Example 285]	–	–	–
1640	27	Nc1ncc(-c2ccco2)c2cc(CN3CCC(N)CC3)cc(Cl)c12 [Example 286]	–	–	–
4740	142	Nc1ncc(-c2cccs2)c2cc(CN3CCC(N)CC3)cc(Cl)c12 [Example 287]	–	–	–
4610	241	COc1cc(CN2CCC(N)CC2)cc2c(-c3ccc(Cl)cc3)cncc12 [Example 288]	–	–	–
10300	418	Nc1ncc(-c2ccco2)c2cc(CN3CCC(N)CC3)ccc12 [Example 289]	–	–	–
5210	183	Nc1ncc(-c2cccs2)c2cc(CN3CCC(N)CC3)ccc12 [Example 290]	–	–	–
4750	638	N[C@@H]1CCC[C@@H](Nc2ccc3cncc(-c4cc5ccccc5o4)c3c2)C1 [Example 291]	–	–	–
5090	161	N[C@@H]1CCC[C@H](Nc2ccc3cncc(-c4cc5ccccc5o4)c3c2)C1 [Example 292]	–	–	–
14400	2080	NC1CCCN(Cc2ccc3cncc(-c4cc5ccccc5o4)c3c2)C1 (centres unmarked) [Example 293]	–	–	–
35300	1520	c1ccc2oc(-c3cncc4ccc(CN5CCCCC5)cc34)cc2c1 [Example 294]	–	–	–
1680	300	COc1cc(CN2CCC(N)CC2)cc2c(-c3ccc(Cl)cc3)cnc(N)c12 [Example 295, 6-[(4-Amino-1-piperidyl)methyl]-4-(4-chlorophenyl)-8-methoxy-isoquinolin-1-amine]	–	–	–
5340	453	COc1cc(CN2CCC(N)CC2)cc2c(-c3ccc(F)c(F)c3)cnc(N)c12 [Example 296]	–	–	–
1210	290	COc1cc(CN2CCC(N)CC2)cc2c(-c3ccco3)cnc(N)c12 [Example 297]	–	–	–
3580	282	COc1cc(CN2CCC(N)CC2)cc2c(-c3cccs3)cnc(N)c12 [Example 298]	–	–	–
–	237	NC1CCN(Cc2ccc3cncc(-c4ccccc4)c3n2)CC1 [Example 299, 1-[(8-Phenyl-1,6-naphthyridin-2-yl)methyl]piperidin-4-amine]	85	–	–
8360	89	NC1CCN(Cc2ccc3cncc(-c4cc5ccccc5o4)c3n2)CC1 [Example 300, 1-[[8-(Benzofuran-2-yl)-1,6-naphthyridin-2-yl]methyl]piperidin-4-amine]	–	–	–
51700	1720	c1ccc2oc(-c3cncc4ccc(CN5CCCCC5)nc34)cc2c1 [Example 301]	–	–	–
18000	142	c1ccc2oc(-c3cncc4ccc(CN5CCNCC5)nc34)cc2c1 [Example 302]	–	–	–

IC50 [1] [nM]	IC50 (MNK1) [nM]	Compound	inhibition at 100 µM ([1]; MIA PaCa-2, at 100 μM, read-out: Inhibition of MiaPaCa growth at indicated concentration) [%]	outgrowth of B16 melanoma pulmonary metastatic lesions [2]	growth of a HCT116 colon carcinoma xenograft model [3]
9520	31	N[C@H]1CC[C@H](Nc2ccc3cncc(-c4ccccc4)c3n2)CC1 [Example 303, trans-N4-(8-phenyl-1,6-naphthyridin-2-yl)cyclohexane-1,4-diamine]	–	–	–
1960	10	N[C@H]1CC[C@H](Nc2ccc3cncc(-c4cc5ccccc5o4)c3n2)CC1 [Example 304, trans-N4-[8-(benzofuran-2-yl)-1,6-naphthyridin-2-yl]cyclohexane-1,4-diamine]	–	–	–
28000	1300	O=C(c1ccc2cncc(-c3cc4ccccc4o3)c2n1)N1CCNCC1 [Example 305]	–	–	–
9130	179	N#Cc1cc(CN2CCC(N)CC2)cc2c(-c3cc4ccccc4o3)cncc12 [Example 306, 6-[(4-Amino-1-piperidyl)methyl]-4-(benzofuran-2-yl)isoquinoline-8-carbonitrile]	–	–	–
47700	256	N#Cc1cc(CN2CCC(N)CC2)cc2c(-c3ccccc3)cncc12 [Example 307]	–	–	–
2340	28	N[C@H]1CC[C@H](Nc2cc(Cl)c3cncc(-c4ccccc4)c3c2)CC1 [Example 308]	–	–	–
4430	61	N[C@H]1CC[C@H](Oc2ccc3cncc(-c4ccccc4)c3c2)CC1 [Example 309]	–	–	–
2370	135	N[C@H]1CC[C@H](Oc2cc(Cl)c3cncc(-c4cc5ccccc5o4)c3c2)CC1 [Example 310]	–	–	–
5760	105	N[C@H]1CC[C@H](Oc2cc(Cl)c3cncc(-c4ccccc4)c3c2)CC1 [Example 311]	–	–	–
1300	171	Nc1ncc(-c2ccccc2)c2cc(N[C@H]3CC[C@H](N)CC3)cc(Cl)c12 [Example 312, Trans-N6-(4-aminocyclohexyl)-8-chloro-4-phenyl-isoquinoline-1,6-diamine]	–	–	–
2060	282	Nc1ncc(-c2cc3ccccc3o2)c2cc(N[C@H]3CC[C@H](N)CC3)cc(Cl)c12 [Example 313]	–	–	–
4740	302	COc1cc(O[C@H]2CC[C@H](N)CC2)cc2c(-c3cc4ccccc4o3)cncc12 [Example 314, Trans-4-[[4-(Benzofuran-2-yl)-8-methoxy-6-isoquinolyl]oxy]cyclohexanamine]	–	–	–
2550	87	COc1cc(N[C@H]2CC[C@H](N)CC2)cc2c(-c3ccccc3)cncc12 [Example 315]	–	–	–
5570	55	COc1cc(O[C@H]2CC[C@H](N)CC2)cc2c(-c3ccccc3)cncc12 [Example 316]	–	–	–
4580	312	Nc1ncc(-c2ccccc2)c2cc(N[C@H]3CC[C@H](N)CC3)ccc12 [Example 317, trans-N6-(4-aminocyclohexyl)-4-phenyl-isoquinoline-1,6-diamine]	–	–	–
3800	296	Nc1ncc(-c2cc3ccccc3o2)c2cc(O[C@H]3CC[C@H](N)CC3)cc(Cl)c12 [Example 318, trans-6-(4-Aminocyclohexoxy)-4-(benzofuran-2-yl)-8-chloro-isoquinolin-1-amine]	–	–	–
2850	38	Nc1ncc(-c2ccccc2)c2cc(O[C@H]3CC[C@H](N)CC3)cc(Cl)c12 [Example 319]	–	–	–
1310	175	COc1cc(O[C@H]2CC[C@H](N)CC2)cc2c(-c3ccccc3)cnc(N)c12 [Example 321]	–	–	–
2170	153	Nc1ncc(-c2ccccc2)c2cc(O[C@H]3CC[C@H](N)CC3)ccc12 [Example 322]	–	–	–
3200	211	COc1cc(O[C@H]2CC[C@H](N)CC2)cc2c(-c3cc4ccccc4o3)cnc(N)c12 [Example 323, trans-6-(4-Aminocyclohexoxy)-4-(benzofuran-2-yl)-8-methoxy-isoquinolin-1-amine]	–	–	–
–	–	CC(=O)C1=C(O)C=C2Oc3c(C(N)=O)c(O)cc(O)c3[C@]2(C)C1=O [cercosporamidc]	–	reduceing the outgrowth	inhibiting the growth
